Measured values as given in patent US20020137929A1, “1 - (3-heterocyclylphenyl) isothiourea, -isourea, -guanidine and -amidine herbicidal agents” (Intellectual Property Department, BASF Aktiengesellschaft, priority 1998, published 2002).

Tests used:
CYPSE (Flatsedge) [1] = test: Postemergence weed control under flooded paddy conditions; assay type: in vivo, Cyperus serotinus; conditions: postemergence weeds, 3-4 weeks after treatment
Summary of the method: (§1)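 With weeds 3 to 5 cm tall and rice at the 1.5 to 2.5 leaf stage, containers were flooded and water held 1.5 to 3 cm above soil. Compounds in 50/50 v/v aqueous/acetone went into the flood water at about 0.0313 to 0.500 kg/ha a.i. Effects were visually rated 0–9 against controls after three to four weeks in the greenhouse.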

ZEAMX (Corn, Field) = test: Postemergence herbicidal evaluation; assay type: in vivo, Zea mays; conditions: postemergence
Summary of the method: (§2)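 Visual 0–9 rating versus control (stand, vigor, malformation, size, chlorosis, overall appearance), taken four to five weeks post-spray. Two-week-old seedlings received roughly 0.0156–0.500 kg/ha active in acetone/water (50/50) with 0.5% TWEEN 20 via nozzle at 40 psi.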

CYPSE (Flatsedge) [2] = test: Preemergence weed control under flooded paddy conditions; assay type: in vivo, Cyperus serotinus; conditions: rated 3-4 weeks after treatment
Summary of the method: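 Visual injury scored 0-9 against control three to four weeks post-treatment, greenhouse-grown. Application: acetone/water (50/50) solutions dosed directly into flood water (1.5-3 cm over silt loam, planted top 0.5 cm), roughly 0.0313 to 0.500 kg/ha active ingredient.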

AMBEL (Ragweed, Common) [3] = test: Postemergence herbicidal evaluation; assay type: in vivo, Ambrosia artemisifolia; conditions: postemergence
Summary of the method: as §2

ORYSAT (Rice, Tebonnet) = test: Postemergence herbicidal evaluation; assay type: in vivo, Oryza sativa, (L.) Tebonnet; conditions: postemergence
Summary of the method: as §2

AMBEL (Ragweed, Common) [4] = test: Preemergence herbicidal evaluation; assay type: in vivo, Ambrosia artemisifolia; conditions: rated 4-5 weeks after treatment
Summary of the method: (§3)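 Scores (0–9) reflect visual comparison with control plants for stand, vigor, malformation, size and chlorosis. Compound was applied to the soil after sowing, before emergence, as an aqueous acetone spray (about 0.0156–0.500 kg/ha), and cups were kept in a greenhouse for 4–5 weeks.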

CASOB (Sicklepod) = test: Preemergence herbicidal evaluation; assay type: in vivo, Cassia obtusifolia; conditions: rated 4-5 weeks after treatment
Summary of the method: as §3

[5] = test system: GLXMAW (Soybean, Williams); test: Postemergence herbicidal evaluation; assay type: in vivo, Glycine max, (L.) Merr. cv Williams; conditions: postemergence
Summary of the method: as §2

ABUTH (Velvetleaf) = test: Postemergence herbicidal evaluation; assay type: in vivo, Abutilon theophrasti; conditions: postemergence
Summary of the method: as §2

[6] = test system: CHEAL (Lambsquarters, Common); test: Postemergence herbicidal evaluation; assay type: in vivo, Chenopodium album; conditions: postemergence
Summary of the method: as §2

[7] = test system: CHEAL (Lambsquarters, Common); test: Preemergence herbicidal evaluation; assay type: in vivo, Chenopodium album; conditions: rated 4-5 weeks after treatment
Summary of the method: as §3

ECHCG (Barnyardgrass) = test: Postemergence herbicidal evaluation; assay type: in vivo, Echinochloa crus-galli; conditions: postemergence
Summary of the method: as §2

CYPIR (Rice Flatsedge) = test: Postemergence weed control under flooded paddy conditions; assay type: in vivo, Cyperus iria; conditions: postemergence weeds, 3-4 weeks after treatment
Summary of the method: as §1

Compound: C=CCN1C(=O)CSC1=Nc1cc(N2C(=O)C3=C(CCCC3)C2=O)c(F)cc1Cl [Compound 2, N-{5-[(3-allyl-4-oxo-2-thiazolidinylidene)amino]-4-chloro-2-fluorophenyl}-1-cyclohexene-1,2-dicarboximide]
- Herbicidal rating CYPSE (CYPSE (Flatsedge) [1]; rate 0.0313 kg/ha): 0.0
- Herbicidal rating CYPSE (CYPSE (Flatsedge) [1]; rate 0.0625 kg/ha): 0.0
- Herbicidal rating CYPSE (CYPSE (Flatsedge) [1]; rate 0.1250 kg/ha): 0.0
- Herbicidal rating CYPSE (CYPSE (Flatsedge) [1]; rate 0.2500 kg/ha): 0.0
- Herbicidal rating CYPSE (CYPSE (Flatsedge) [1]; rate 0.5000 kg/ha): 0.0
- ZEAMX herbicidal rating (ZEAMX (Corn, Field); rate 0.0157 kg/ha): 3.0
- ZEAMX herbicidal rating (ZEAMX (Corn, Field); rate 0.0313 kg/ha): 3.0
- ZEAMX herbicidal rating (ZEAMX (Corn, Field); rate 0.0625 kg/ha): 3.0
- ZEAMX herbicidal rating (ZEAMX (Corn, Field); rate 0.1250 kg/ha): 3.5
- ZEAMX herbicidal rating (ZEAMX (Corn, Field); rate 0.2500 kg/ha): 3.5
- ZEAMX herbicidal rating (ZEAMX (Corn, Field); rate 0.5000 kg/ha): 4.0
- Herbicidal rating CYPSE (CYPSE (Flatsedge) [2]; 0.0313 kg/ha): 0.0
- Herbicidal rating CYPSE (CYPSE (Flatsedge) [2]; 0.0625 kg/ha): 0.0
- Herbicidal rating CYPSE (CYPSE (Flatsedge) [2]; 0.1250 kg/ha): 0.0
- Herbicidal rating CYPSE (CYPSE (Flatsedge) [2]; 0.2500 kg/ha): 0.0
- Herbicidal rating CYPSE (CYPSE (Flatsedge) [2]; 0.5000 kg/ha): 0.0
- AMBEL herbicidal rating (AMBEL (Ragweed, Common) [3]; rate 0.0157 kg/ha): 4.0
- AMBEL herbicidal rating (AMBEL (Ragweed, Common) [3]; rate 0.0313 kg/ha): 2.0
- AMBEL herbicidal rating (AMBEL (Ragweed, Common) [3]; rate 0.0625 kg/ha): 6.0
- AMBEL herbicidal rating (AMBEL (Ragweed, Common) [3]; rate 0.1250 kg/ha): 2.0
- AMBEL herbicidal rating (AMBEL (Ragweed, Common) [3]; rate 0.2500 kg/ha): 6.0
- AMBEL herbicidal rating (AMBEL (Ragweed, Common) [3]; rate 0.5000 kg/ha): 9.0
- ORYSAT herbicidal rating (ORYSAT (Rice, Tebonnet); rate 0.0157 kg/ha): 3.0
- ORYSAT herbicidal rating (ORYSAT (Rice, Tebonnet); rate 0.0313 kg/ha): 3.0
- ORYSAT herbicidal rating (ORYSAT (Rice, Tebonnet); rate 0.0625 kg/ha): 3.0
- ORYSAT herbicidal rating (ORYSAT (Rice, Tebonnet); rate 0.1250 kg/ha): 3.5
- ORYSAT herbicidal rating (ORYSAT (Rice, Tebonnet); rate 0.2500 kg/ha): 3.5
- ORYSAT herbicidal rating (ORYSAT (Rice, Tebonnet); rate 0.5000 kg/ha): 3.0
- AMBEL preemergence herbicidal rating (AMBEL (Ragweed, Common) [4]; rate 0.0313 kg/ha): 0.0
- AMBEL preemergence herbicidal rating (AMBEL (Ragweed, Common) [4]; rate 0.0625 kg/ha): 0.0
- AMBEL preemergence herbicidal rating (AMBEL (Ragweed, Common) [4]; rate 0.1250 kg/ha): 0.0
- AMBEL preemergence herbicidal rating (AMBEL (Ragweed, Common) [4]; rate 0.2500 kg/ha): 0.0
- AMBEL preemergence herbicidal rating (AMBEL (Ragweed, Common) [4]; rate 0.5000 kg/ha): 0.0
- CASOB preemergence herbicidal rating (CASOB (Sicklepod); rate 0.0313 kg/ha): 2.0
- CASOB preemergence herbicidal rating (CASOB (Sicklepod); rate 0.0625 kg/ha): 2.0
- CASOB preemergence herbicidal rating (CASOB (Sicklepod); rate 0.5000 kg/ha): 2.0
- GLXMAW herbicidal rating ([5]; rate 0.0157 kg/ha): 3.5
- GLXMAW herbicidal rating ([5]; rate 0.0313 kg/ha): 3.5
- GLXMAW herbicidal rating ([5]; rate 0.0625 kg/ha): 3.5
- GLXMAW herbicidal rating ([5]; rate 0.1250 kg/ha): 3.0
- GLXMAW herbicidal rating ([5]; rate 0.2500 kg/ha): 3.0
- GLXMAW herbicidal rating ([5]; rate 0.5000 kg/ha): 3.0
- ABUTH herbicidal rating (ABUTH (Velvetleaf); rate 0.0157 kg/ha): 0.0
- ABUTH herbicidal rating (ABUTH (Velvetleaf); rate 0.0313 kg/ha): 4.0
- ABUTH herbicidal rating (ABUTH (Velvetleaf); rate 0.0625 kg/ha): 9.0
- ABUTH herbicidal rating (ABUTH (Velvetleaf); rate 0.1250 kg/ha): 9.0
- ABUTH herbicidal rating (ABUTH (Velvetleaf); rate 0.2500 kg/ha): 9.0
- ABUTH herbicidal rating (ABUTH (Velvetleaf); rate 0.5000 kg/ha): 9.0
- CHEAL herbicidal rating ([6]; rate 0.0157 kg/ha): 7.0
- CHEAL herbicidal rating ([6]; rate 0.0313 kg/ha): 6.0
- CHEAL herbicidal rating ([6]; rate 0.0625 kg/ha): 8.0
- CHEAL herbicidal rating ([6]; rate 0.1250 kg/ha): 9.0
- CHEAL herbicidal rating ([6]; rate 0.2500 kg/ha): 7.0
- CHEAL herbicidal rating ([6]; rate 0.5000 kg/ha): 9.0
- CHEAL preemergence herbicidal rating ([7]; rate 0.0313 kg/ha): 7.0
- CHEAL preemergence herbicidal rating ([7]; rate 0.2500 kg/ha): 9.0
- CHEAL preemergence herbicidal rating ([7]; rate 0.5000 kg/ha): 9.0
- ECHCG herbicidal rating (ECHCG (Barnyardgrass); rate 0.0157 kg/ha): 0.0
- ECHCG herbicidal rating (ECHCG (Barnyardgrass); rate 0.0313 kg/ha): 0.0
- ECHCG herbicidal rating (ECHCG (Barnyardgrass); rate 0.0625 kg/ha): 0.0
- ECHCG herbicidal rating (ECHCG (Barnyardgrass); rate 0.1250 kg/ha): 0.0
- ECHCG herbicidal rating (ECHCG (Barnyardgrass); rate 0.2500 kg/ha): 0.0
- ECHCG herbicidal rating (ECHCG (Barnyardgrass); rate 0.5000 kg/ha): 0.0
- Herbicidal rating CYPIR (CYPIR (Rice Flatsedge); rate 0.0313 kg/ha): 0.0
- Herbicidal rating CYPIR (CYPIR (Rice Flatsedge); rate 0.0625 kg/ha): 0.0
- Herbicidal rating CYPIR (CYPIR (Rice Flatsedge); rate 0.1250 kg/ha): 0.0
- Herbicidal rating CYPIR (CYPIR (Rice Flatsedge); rate 0.2500 kg/ha): 1.0
- Herbicidal rating CYPIR (CYPIR (Rice Flatsedge); rate 0.5000 kg/ha): 4.0
